≈ marks a conversion by molar mass, not a printed value.
Columns and labels:
Experiment in all cases: minimal inhibitory concentration, two-fold agar dilution
Type in all cases: cell-based
[1] = tested on: Enterobacter aerogenes ATCC 29751; details: Klebsiella aerogenes, ATCC29751; Muller-Hinton agar; 37°C; 20 hours; read-out: MIC values against the standard strains
Method in brief: (§1)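 Compounds were serially diluted two-fold into Mueller-Hinton agar, and each plate was spot-inoculated with the test strain at 10⁷ CFU per ml. Plates were incubated at 37°C for 20 hours before MIC values were read.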

[2] = tested on: Pseudomonas aeruginosa ATCC 25619; details: ATCC25619, Muller-Hinton agar, 37°C, 20 hours, read-out: MIC values against the standard strains
Method in brief: as §1

[3] = tested on: Shigella sonnei ATCC 11060; details: ATCC11060, Muller-Hinton agar, 37°C, 20 hours, read-out: MIC values against the standard strains
Method in brief: as §1

[4] = tested on: Enterobacter cloacae ATCC 27508; details: ATCC27508, Muller-Hinton agar, 37°C, 20 hours, read-out: MIC values against the standard strains
Method in brief: as §1

[5] = tested on: Citrobacter freundii ATCC 8090; details: ATCC8090, Muller-Hinton agar, 37°C, 20 hours, read-out: MIC values against the standard strains
Method in brief: as §1

[6] = tested on: Micrococcus luteus ATCC 9341; details: ATCC9341, Muller-Hinton agar, 37°C, 20 hours, read-out: MIC values against the standard strains
Method in brief: as §1

[7] = tested on: Staphylococcus aureus ATCC 6538p; details: ATCC6538P, Muller-Hinton agar, 37°C, 20 hours, read-out: MIC values against the standard strains
Method in brief: as §1

[8] = tested on: Morganella morganii ATCC 8076h; details: ATCC8076H, Muller-Hinton agar, 37°C, 20 hours, read-out: MIC values against the standard strains
Method in brief: as §1

[9] = tested on: Shigella flexneri ATCC 11836; details: ATCC11836, Muller-Hinton agar, 37°C, 20 hours, read-out: MIC values against the standard strains
Method in brief: as §1

[10] = tested on: Pseudomonas aeruginosa ATCC 27853; details: ATCC27853, Muller-Hinton agar, 37°C, 20 hours, read-out: MIC values against the standard strains
Method in brief: as §1

[11] = tested on: Staphylococcus epidermidis ATCC 12228; details: ATCC12228, Muller-Hinton agar, 37°C, 20 hours, read-out: MIC values against the standard strains
Method in brief: as §1

[12] = tested on: Pseudomonas aeruginosa ATCC 10145; details: ATCC10145, Muller-Hinton agar, 37°C, 20 hours, read-out: MIC values against the standard strains
Method in brief: as §1

[13] = tested on: Escherichia coli ATCC 25922; details: ATCC25922, Muller-Hinton agar, 37°C, 20 hours, read-out: MIC values against the standard strains
Method in brief: as §1

[14] = tested on: Providencia rettgeri ATCC 9250; details: ATCC9250, Muller-Hinton agar, 37°C, 20 hours, read-out: MIC values against the standard strains
Method in brief: as §1

[15] = tested on: Klebsiella pneumoniae ATCC 10031; details: ATCC10031, Muller-Hinton agar, 37°C, 20 hours, read-out: MIC values against the standard strains
Method in brief: as §1

[16] = tested on: Bacillus cereus ATCC 11778; details: ATCC11778, Muller-Hinton agar, 37°C, 20 hours, read-out: MIC values against the standard strains
Method in brief: as §1

[17] = tested on: Proteus mirabilis ATCC 25933; details: ATCC25933, Muller-Hinton agar, 37°C, 20 hours, read-out: MIC values against the standard strains
Method in brief: as §1

[18] = tested on: Staphylococcus aureus ATCC 10537; details: ATCC10537, Muller-Hinton agar, 37°C, 20 hours, read-out: MIC values against the standard strains
Method in brief: as §1

[19] = tested on: Escherichia coli ATCC 10536; details: ATCC10536, Muller-Hinton agar, 37°C, 20 hours, read-out: MIC values against the standard strains
Method in brief: as §1

[20] = tested on: Bacillus megaterium ATCC 9885; details: Priestia megaterium, ATCC9885; Muller-Hinton agar; 37°C; 20 hours; read-out: MIC values against the standard strains
Method in brief: as §1

[21] = tested on: Salmonella typhimurium ATCC 14028; details: Salmonella enterica; Muller-Hinton agar; 37°C; 20 hours; read-out: MIC values against the standard strains
Method in brief: as §1

[22] = tested on: Serratia marcescens ATCC 27117; details: ATCC27117, Muller-Hinton agar, 37°C, 20 hours, read-out: MIC values against the standard strains
Method in brief: as §1

[23] = tested on: Proteus vulgaris ATCC 6059; details: ATCC6059, Muller-Hinton agar, 37°C, 20 hours, read-out: MIC values against the standard strains
Method in brief: as §1

[24] = tested on: Streptococcus faecalis ATCC 29212; details: Enterococcus faecalis, ATCC29212; Muller-Hinton agar; 37°C; 20 hours; read-out: MIC values against the standard strains
Method in brief: as §1

[25] = tested on: Acinetobacter calcoaceticus ATCC 15437; details: ATCC15437, Muller-Hinton agar, 37°C, 20 hours, read-out: MIC values against the standard strains
Method in brief: as §1

SMILES | MIC [1] [µg/mL] | MIC [2] [µg/mL] | MIC [3] [µg/mL] | MIC [4] [µg/mL] | MIC [5] [µg/mL] | MIC [6] [µg/mL] | MIC [7] [µg/mL] | MIC [8] [ng/mL] | MIC [9] [µg/mL] | MIC [10] [µg/mL] | MIC [11] [µg/mL] | MIC [12] [µg/mL] | MIC [13] [µg/mL] | MIC [14] [µg/mL] | MIC [15] [µg/mL] | MIC [16] [µg/mL] | MIC [17] [µg/mL] | MIC [18] [µg/mL] | MIC [19] [µg/mL] | MIC [20] [µg/mL] | also measured
CCO/N=C(\C(=O)N[C@@H]1C(=O)N2C(C(=O)[O-])=C(CSc3nc(N)c(N)c(N)[n+]3CC)CS[C@H]12)c1nsc(N)n1 [Example 15, 7-[(Z)-2-(5-amino-1,2,4-thiadiazol-3-yl)-2-(ethoxyimino)acetamido]-3-(4,5,6-triamino-1-ethylpyrimidinium-2-yl)thiomethyl-3-cephem-4-carboxylate] | 0.063 (≈ 0.106 µM) | 1 (≈ 1.68 µM) | 0.25 (≈ 0.42 µM) | 0.031 (≈ 0.052 µM) | 0.5 (≈ 0.839 µM) | 0.063 (≈ 0.106 µM) | 0.5 (≈ 0.839 µM) | ≤ 8 | 0.25 (≈ 0.42 µM) | 2 (≈ 3.36 µM) | 0.25 (≈ 0.42 µM) | 8 (≈ 13.4 µM) | 0.063 (≈ 0.106 µM) | ≤ 0.008 | 0.016 (≈ 0.0269 µM) | 32 (≈ 53.7 µM) | 1 (≈ 1.68 µM) | 0.25 (≈ 0.42 µM) | 0.063 (≈ 0.106 µM) | 0.13 (≈ 0.218 µM) | MIC [21]: 0.5 µg/mL (≈ 0.839 µM); MIC [22]: 0.5 µg/mL (≈ 0.839 µM); MIC [23]: 1 µg/mL (≈ 1.68 µM); MIC [24]: 32 µg/mL (≈ 53.7 µM); MIC [25]: 4 µg/mL (≈ 6.71 µM)
CCO/N=C(\C(=O)N[C@@H]1C(=O)N2C(C(=O)[O-])=C(CSc3nc(N)c(N)c(N)[n+]3C)CS[C@H]12)c1csc(N)n1 [Example 3, 7-[(Z)-2-(aminothiazol-4-yl)-2-(ethoxyimino)acetamido]-3-(4,5,6-triamino-1-methylpyrimidinium-2-yl)thiomethyl-3-cephem-4-carboxylate] | 0.5 (≈ 0.861 µM) | 0.5 (≈ 0.861 µM) | 0.25 (≈ 0.431 µM) | 0.016 (≈ 0.0276 µM) | 0.063 (≈ 0.108 µM) | 0.031 (≈ 0.0534 µM) | 0.5 (≈ 0.861 µM) | ≤ 8 | 0.063 (≈ 0.108 µM) | 4 (≈ 6.89 µM) | 0.13 (≈ 0.224 µM) | 8 (≈ 13.8 µM) | 0.063 (≈ 0.108 µM) | ≤ 0.008 | ≤ 0.008 | 32 (≈ 55.1 µM) | 0.25 (≈ 0.431 µM) | 0.25 (≈ 0.431 µM) | 0.063 (≈ 0.108 µM) | 0.031 (≈ 0.0534 µM) | MIC [21]: 0.5 µg/mL (≈ 0.861 µM); MIC [22]: 0.25 µg/mL (≈ 0.431 µM); MIC [23]: 0.25 µg/mL (≈ 0.431 µM); MIC [24]: 64 µg/mL (≈ 110 µM); MIC [25]: 8 µg/mL (≈ 13.8 µM)
CC[n+]1c(SCC2=C(C(=O)[O-])N3C(=O)[C@@H](NC(=O)/C(=N\OC(C)(C)C(=O)O)c4csc(N)n4)[C@H]3SC2)nc(N)c(N)c1N [Example 11, 7-[(Z)-2-(2-aminothiazol-4-yl)-2-(carboxyprop-2-oxyimino)acetamido]-3-(4,5,6-triamino-1-ethylpyrimidinium-2-yl)thiomethyl-3-cephem-4-carboxylate] | 2 (≈ 3.06 µM) | 2 (≈ 3.06 µM) | 1 (≈ 1.53 µM) | 0.031 (≈ 0.0475 µM) | 0.13 (≈ 0.199 µM) | 0.13 (≈ 0.199 µM) | 4 (≈ 6.13 µM) | ≤ 8 | 0.063 (≈ 0.0965 µM) | 4 (≈ 6.13 µM) | 2 (≈ 3.06 µM) | 8 (≈ 12.3 µM) | 0.063 (≈ 0.0965 µM) | 0.063 (≈ 0.0965 µM) | 0.063 (≈ 0.0965 µM) | 128 (≈ 196 µM) | 0.25 (≈ 0.383 µM) | 2 (≈ 3.06 µM) | 0.031 (≈ 0.0475 µM) | 0.13 (≈ 0.199 µM) | MIC [21]: 1 µg/mL (≈ 1.53 µM); MIC [22]: 1 µg/mL (≈ 1.53 µM); MIC [23]: 0.25 µg/mL (≈ 0.383 µM); MIC [24]: > 128 µg/mL; MIC [25]: 8 µg/mL (≈ 12.3 µM)

From patent EP0584797A2, “Novel cephalosporin compounds and processes for the preparation thereof” (LUCKY LTD., priority 1992, dated 1994)
